Tested on: 556581-035-R-J1-PDC complex spheroid viability
Assay: Anticancer human tumor 556581-035-R-J1-PDC patient-derived ovarian carcinoma cell line growth inhibition
Details: for IC50: curve of first compound; for viability, T/C: stronger effect = lower value
Outline: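 Drug combinations with the LSD1 inhibitor iadademstat tested on tumor cells co-cultured as spheroids with endothelial cells and mesenchymal stem cells. Concentrations descended in half-log increments from clinical Cmax or 10 microM.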

[1] = second compound 0.1 µM, first compound 0.000949 µM
[2] = second compound 0.1 µM, first compound 0.003 µM
[3] = second compound 0.1 µM, first compound 0.00949 µM
[4] = second compound 0.1 µM, first compound 0.03 µM
[5] = second compound 0.1 µM, first compound 0.0949 µM
[6] = second compound 0.1 µM, first compound 0.3 µM
[7] = second compound 0.316 µM, first compound 0.000949 µM
[8] = second compound 0.316 µM, first compound 0.003 µM
[9] = second compound 0.316 µM, first compound 0.00949 µM
[10] = second compound 0.316 µM, first compound 0.03 µM
[11] = second compound 0.316 µM, first compound 0.0949 µM
[12] = second compound 0.316 µM, first compound 0.3 µM
[13] = second compound 1 µM, first compound 0.000949 µM
[14] = second compound 1 µM, first compound 0.003 µM
[15] = second compound 1 µM, first compound 0.00949 µM
[16] = second compound 1 µM, first compound 0.03 µM
[17] = second compound 1 µM, first compound 0.0949 µM
[18] = second compound 1 µM, first compound 0.3 µM
[19] = second compound 3.16 µM, first compound 0.000949 µM
[20] = second compound 3.16 µM, first compound 0.003 µM
[21] = second compound 3.16 µM, first compound 0.00949 µM
[22] = second compound 3.16 µM, first compound 0.03 µM
[23] = second compound 3.16 µM, first compound 0.0949 µM
[24] = second compound 3.16 µM, first compound 0.3 µM
[25] = second compound 10 µM, first compound 0.000949 µM
[26] = second compound 10 µM, first compound 0.003 µM
[27] = second compound 10 µM, first compound 0.00949 µM
[28] = second compound 10 µM, first compound 0.03 µM
[29] = second compound 10 µM, first compound 0.0949 µM
[30] = second compound 10 µM, first compound 0.3 µM
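Note: spheroids exposed to agents for seven days.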
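Throughout, for viability, T/C: 100% = DMSO vehicle control wells.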

Structure (SMILES)	IC50 (second compound 0.1 µM) [nM]	IC50 (second compound 0.316 µM) [nM]	IC50 (second compound 1 µM) [nM]	IC50 (second compound 3.16 µM) [nM]	IC50 (second compound 10 µM) [nM]	viability, T/C [1] [%]	viability, T/C [2] [%]	viability, T/C [3] [%]	viability, T/C [4] [%]	viability, T/C [5] [%]	viability, T/C [6] [%]	viability, T/C [7] [%]	viability, T/C [8] [%]	viability, T/C [9] [%]	viability, T/C [10] [%]	viability, T/C [11] [%]	viability, T/C [12] [%]	viability, T/C [13] [%]	viability, T/C [14] [%]	viability, T/C [15] [%]	also measured
CCc1c2c(nc3ccc(O)cc13)-c1cc3c(c(=O)n1C2)COC(=O)[C@]3(O)CC + NC1CCC(NC2CC2c2ccccc2)CC1	< 0.949	< 0.949	< 0.949	< 0.949	< 0.949	20.5	10.8	2.17	0.64	0.13	0.25	20.3	12.4	3.03	1.28	0.23	0.24	20.2	13.4	2.69	viability, T/C [16]: 0.95%; viability, T/C [17]: 1.3%; viability, T/C [18]: 0.52%; viability, T/C [19]: 20.9%; viability, T/C [20]: 10.9%; viability, T/C [21]: 2.33%; viability, T/C [22]: 0.37%; viability, T/C [23]: 0.36%; viability, T/C [24]: 0.53%; viability, T/C [25]: 20.1%; viability, T/C [26]: 10.3%; viability, T/C [27]: 2.5%; viability, T/C [28]: 0.37%; viability, T/C [29]: 0.19%; viability, T/C [30]: 0.32%
Nc1ccn(C2OC(CO)C(O)C2(F)F)c(=O)n1 (stereo not given) + NC1CCC(NC2CC2c2ccccc2)CC1	2.48	2.57	2.34	2.4	1.98	75.4	44.4	43.3	39.6	40.3	36.5	76.9	45.8	33.2	36	34.5	34.1	65.5	48.3	33.5	viability, T/C [16]: 42.7%; viability, T/C [17]: 40.5%; viability, T/C [18]: 37.8%; viability, T/C [19]: 63%; viability, T/C [20]: 46.3%; viability, T/C [21]: 41.5%; viability, T/C [22]: 42.8%; viability, T/C [23]: 40.7%; viability, T/C [24]: 36.1%; viability, T/C [25]: 61.1%; viability, T/C [26]: 44.9%; viability, T/C [27]: 36.8%; viability, T/C [28]: 42.2%; viability, T/C [29]: 38.3%; viability, T/C [30]: 42.7%
